Data from patent US4003936A, “2-Hydrocinnampyl-1,3-cyclopentanediones” (Zaidan Hojin Biseibutsu Kagaku Kenkyu Kai, priority 1970, dated 1977).

Experiments:
tyrosine hydroxylase = biological target: T1, tyrosine hydroxylase (Bos taurus, UniProt P17289); assay: inhibition of tyrosine hydroxylase (method of J. Antibiot. 23, 514 (1970)); type: biochemical; design: inhibition: dose or concentration left out as unconfirmed; conditions: for inhibition at 0.1 mg: at 100 meg. (figure after the slash in the cell); for inhibition at 0.1 mg / inhibition at 0.05 mg / inhibition: read-out: Inhibition of the product (1a) to tyrosine hydroxylase; for inhibition at 0.05 mg: at 50 meg. (figure after the slash in the cell); for inhibition: at 200 meg. (figure after the slash in the cell)
T1 sequence (P17289 1-491): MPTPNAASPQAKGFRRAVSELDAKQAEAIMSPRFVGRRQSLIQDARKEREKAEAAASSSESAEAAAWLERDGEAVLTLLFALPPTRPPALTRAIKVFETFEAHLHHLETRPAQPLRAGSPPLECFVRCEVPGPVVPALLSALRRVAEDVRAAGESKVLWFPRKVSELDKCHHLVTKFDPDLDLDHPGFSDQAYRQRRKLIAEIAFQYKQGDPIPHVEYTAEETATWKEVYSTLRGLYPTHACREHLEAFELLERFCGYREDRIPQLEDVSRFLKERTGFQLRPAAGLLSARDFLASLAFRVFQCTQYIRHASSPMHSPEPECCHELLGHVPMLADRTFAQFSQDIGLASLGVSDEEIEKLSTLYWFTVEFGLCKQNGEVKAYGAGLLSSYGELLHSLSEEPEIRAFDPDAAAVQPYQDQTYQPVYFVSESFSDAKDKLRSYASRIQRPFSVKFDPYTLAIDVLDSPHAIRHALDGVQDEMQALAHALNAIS
Excerpt: (§1) Pharmacological properties of the new compounds of the present invention are now described. The new compounds of the present invention have been examined for their biological activities, and their inhibition to tyrosine hydroxylase are summarised in Table 2 later. The details of the test methods used and the close relationship of the biological activities between in vitro and in vivo are well presented in some published literatures (for example, see "J. Antibiot." 23, 514 (1970) and "J. Am. Chem. Soc." 93, 1285 (1971)). For instance, 2-(2-hydroxyhydrocinnamoyl)-1,3-cyclopentanedione, typical one of the new compounds of the present invention, was tested by dissolving in distilled water (pH was adjusted to 2.5) and administering to mice. […] Effect of this compound on tyrosine hydroxylase was also tested by the method described in the "Journal of Antibiotics" 23, 514 (1970).
In these Examples, various derivatives of 2cinnamoyl-1,3-cyclopentanedione of the formula [IVa] as prepared in Examples 3 - 34 were converted into the corresponding derivatives of 2-hydrocinnamoyl-1,3-cyclopentanedione of the formula [Ia] by hydrogenating them in the same manner as in the catalytic hydrogenation step of Example 1 (3). Nature of R1 and R2 in the resulting hydrogenation products 2-hydrocinnamoyl-1,3-cyclopentanediones [Ia], their yields, melting point and elementary analysis data are summarised in Table 2 with reference to the amount and nature of the catalyst and solvent which were employed in the catalytic hydrogenation step. In Table 2, there are also shown the degrees of inhibition (%) of the produced derivatives of 2-hydrocinnamoyl-1,3-cyclopentanedione [Ia] to tyrosine hydroxylase to provide a measure of their biological properties, the inhibition degrees as shown being determined by the same method as that used to estimate the inhibition % of 2-(2-hydroxyhydrocinnamoyl)-1,3-cyclopentanedione as mentioned above.

rats [1] = assay: sedative effect after injection of a large dose, rats; type: in vivo
[2] = acute toxicity (LD50) in mice; conditions: mouse, in vivo, dissolved in distilled water pH 2.5
Excerpt: as §1

rats [3] = assay: blood pressure of rats on daily injection or oral administration; type: in vivo
Procedure: (§2) Hydroxylation of tyrosine is the rate-limiting step of norepinephrine biosynthesis. Therefore, inhibition of tyrosine hydroxylase results in inhibition of norepinephrine synthesis in vivo which results in lowering the blood pressure. […] The hypotensive effect can be seen more markedly, when it is given to genetically hypertensive rats which was developed by Prof. Okamoto, Midical School, University of Kyoto. When 6.25 mg/Kg. was intraperitoneally injected to a rat of 185 mm. blood pressure and another rat of 188 mm., then the blood pressure was lowered to […]. and 118-162 mm. respectively during 1-22 hours after the injection. When 125 mg/Kg. was intraperitoneally injected to a rat of 195 mm., the pressure was reduced to 155-166 mm. during 1-22 hours after the injection. […] It caused 20-30% reduction which continued for about 5 days after the last oral administration.

mice = assay: sedative effect after injection of a large dose, mice; type: in vivo
[4] = tested on: genetically hypertensive rats; assay: hypotensive effect in genetically hypertensive rats; type: in vivo; conditions: for blood pressure after injection: 1-22 hours after the injection
Procedure: as §2

hypertensive patients = assay: daily administration to hypertensive patients for 30 days; type: in vivo, human; conditions: 300 mcg daily divided into three times
[5] = oral, daily 3.1, 6.25, 12.5, 25 mg/Kg for three days

Work on O=C1CCC(=O)C1C(=O)CCc1ccccc1 [Example 35, 2-hydrocinnamoyl-1,3-cyclopentanedione] yielded an inhibition at 0.1 mg (tyrosine hydroxylase) of 60%.
In the case of O=C1CCC(=O)C1C(=O)CCc1ccccc1O [Example 38, 2-(2-hydroxyhydrocinnamoyl)-1,3-cyclopentanedione], the “inhibition to tyrosine hydroxylase” value (tyrosine hydroxylase; at 12.5 mcg/cc) is reported as 30%, the “inhibition to tyrosine hydroxylase” value (tyrosine hydroxylase; at 25 mcg/cc) is reported as 38% and the “inhibition to tyrosine hydroxylase” value (tyrosine hydroxylase; at 50 mcg/cc) is reported as 44%. For the same compound, the inhibition at 0.1 mg (tyrosine hydroxylase) was 52%, the “relation with 2-amino-4-hydroxy-6,7-dimethyltetrahydropteridine (Lineweaver-Burk plot)” value (tyrosine hydroxylase; cofactor 2-amino-4-hydroxy-6,7-dimethyltetrahydropteridine) was “competitive” and the “relation with tyrosine (Lineweaver-Burk plot)” value (tyrosine hydroxylase; substrate tyrosine) was “uncompetitive”. The sedative effect (rats [1]) was “did not cause sleeping and the sedative effect was not recognized”, the LD50 ([2]; ip, intraperitoneal injection) was 283 mg/kg and the LD50 ([2]; oral administration) was 550 mg/kg. For the same compound, the “effect on blood pressure” value (rats [3]) was “lowered the blood pressure”, the sedative effect (mice) was “did not cause sleeping and the sedative effect was not recognized” and the “blood pressure after injection” value ([4]; 6.25 mg/Kg intraperitoneally, rat of 185 mm. blood pressure) was 25-155 mm. The “blood pressure after injection” value ([4]; 6.25 mg/Kg intraperitoneally, rat of 188 mm. blood pressure) was 118-162 mm, the “blood pressure after injection” value ([4]; 125 mg/Kg intraperitoneally, rat of 195 mm. blood pressure) was 155-166 mm and the “duration of the blood pressure reduction after the last oral administration” value [4, 5] was “about 5 days”. For the same compound, the “reduction of blood pressure” value [4, 5] was 20-30%, the hypotensive effect (hypertensive patients) was “showed hypotensive effect” and the side effect (hypertensive patients) was “without any side effect”.
O=C1CCC(=O)C1C(=O)CCc1cccc(O)c1 [Example 39, 2-(3-hydroxyhydrocinnamoyl)-1,3-cyclopentanedione] gave an inhibition at 0.1 mg (tyrosine hydroxylase) of 23%.
For O=C1CCC(=O)C1C(=O)CCc1ccc(O)cc1 [Example 40, 2-(4-Hydroxyhydrocinnamoyl)-1,3-cyclopentanedione], the inhibition at 0.05 mg (tyrosine hydroxylase) was 32%.
Compound COc1ccc(CCC(=O)C2C(=O)CCC2=O)cc1 [Example 41, 2-(4-Methoxyhydrocinnamoyl)-1,3-cyclopentanedione] has an inhibition at 0.1 mg (tyrosine hydroxylase) of 29%.
Work on O=C1CCC(=O)C1C(=O)CCc1ccccc1Cl [Example 42, 2-(2-chlorohydrocinnamoyl)-1,3-cyclopentanedione] yielded an inhibition at 0.1 mg (tyrosine hydroxylase) of 10%.
With O=C1CCC(=O)C1C(=O)CCc1ccc(Cl)cc1 [Example 43, 2-(4-chlorohydrocinnamoyl)-1,3-cyclopentanedione] the inhibition at 0.1 mg (tyrosine hydroxylase) was 42%.
O=C1CCC(=O)C1C(=O)CCc1cccc(F)c1 [Example 44] gave an inhibition at 0.1 mg (tyrosine hydroxylase) of 36%.
For O=C1CCC(=O)C1C(=O)CCc1ccc(F)cc1 [Example 45, 2-(4-Fluorohydrocinnamoyl)-1,3-cyclopentanedione], the inhibition (tyrosine hydroxylase) was 62%.
Work on O=C1CCC(=O)C1C(=O)CCc1ccccc1F [Example 46] yielded an inhibition (tyrosine hydroxylase) of 53%.
With COc1ccccc1CCC(=O)C1C(=O)CCC1=O [Example 47] the inhibition (tyrosine hydroxylase) was 7.6%.
For O=C1CCC(=O)C1C(=O)CCc1ccc(Br)cc1 [Example 48], the inhibition at 0.05 mg (tyrosine hydroxylase) was 50%.
For Cc1ccc(CCC(=O)C2C(=O)CCC2=O)cc1 [Example 49, 2-(4-methylhydrocinnamoyl)-1,3-cyclopentanedione], the inhibition (tyrosine hydroxylase) was 44%.
Work on COC(=O)c1ccc(CCC(=O)C2C(=O)CCC2=O)cc1 [Example 50, 2-(4-Methoxycarbonylhydrocinnamoyl)-1,3-cyclopentanedione] yielded an inhibition (tyrosine hydroxylase) of 41%.
COc1cccc(CCC(=O)C2C(=O)CCC2=O)c1 [Example 51] gave an inhibition (tyrosine hydroxylase) of 6.4%.
Work on CCOc1ccc(CCC(=O)C2C(=O)CCC2=O)cc1 [Example 52] yielded an inhibition (tyrosine hydroxylase) of 15.6%.
In the case of O=C1CCC(=O)C1C(=O)CCc1cccc(Br)c1 [Example 53], the inhibition (tyrosine hydroxylase) is reported as 50.7%.
In the case of CC(C)c1ccc(CCC(=O)C2C(=O)CCC2=O)cc1 [Example 54], the inhibition (tyrosine hydroxylase) is reported as 36.8%.
CCOC(=O)c1ccc(CCC(=O)C2C(=O)CCC2=O)cc1 [Example 55] showed an inhibition (tyrosine hydroxylase) of 12.8%.
With CCCOC(=O)c1ccc(CCC(=O)C2C(=O)CCC2=O)cc1 [Example 56] the inhibition (tyrosine hydroxylase) was 4.6%.
N#Cc1ccc(CCC(=O)C2C(=O)CCC2=O)cc1 [Example 57] gave an inhibition (tyrosine hydroxylase) of 77.4%.
CN(C)c1ccc(CCC(=O)C2C(=O)CCC2=O)cc1 [Example 58] gave an inhibition (tyrosine hydroxylase) of 10.1%.
For O=C1CCC(=O)C1C(=O)CCc1cccc(C(F)(F)F)c1 [Example 59], the inhibition (tyrosine hydroxylase) was 30.5%.
Compound CC(=O)Oc1ccccc1CCC(=O)C1C(=O)CCC1=O [Example 60] has an inhibition at 0.1 mg (tyrosine hydroxylase) of 10%.
For COc1cc(CCC(=O)C2C(=O)CCC2=O)ccc1O [Example 61, 2-(4-Hydroxy-3-methoxyhydrocinnamoyl)-1,3-cyclopentanedione], the “inhibition to tyrosine hydroxylase” value (tyrosine hydroxylase; at 200 mcg/cc) was “about 10%”.
With O=C1CCC(=O)C1C(=O)CCc1ccc(Cl)c(Cl)c1 [Example 62, 2-(3,4-dichlorohydrocinnamoyl)-1,3-cyclopentanedione] the “inhibition to tyrosine hydroxylase” value (tyrosine hydroxylase; at 100 mcg/cc) was 45%.
For O=C1CCC(=O)C1C(=O)CCc1ccc2c(c1)OCO2 [Example 63, 2-(3,4-methylenedioxyhydrocinnamoyl)-1,3-cyclopentanedione], the “inhibition to tyrosine hydroxylase” value (tyrosine hydroxylase; at 100 mcg/cc) was 22.5%.
In the case of COc1ccc(CCC(=O)C2C(=O)CCC2=O)cc1O [Example 64, 2-(3-hydroxy-4-methoxyhydrocinnomoyl)-1,3-cyclopentanedione], the “inhibition to tyrosine hydroxylase” value (tyrosine hydroxylase; at 200 mcg/cc) is reported as 29.5%.
For COc1cccc(CCC(=O)C2C(=O)CCC2=O)c1O [Example 65, 2-(2-hydroxy-3-methoxyhydrocinnamoyl)-1,3-cyclopentanedione], the “inhibition to tyrosine hydroxylase” value (tyrosine hydroxylase; at 100 mcg/cc) was 5%.
For O=C1CCC(=O)C1C(=O)CCc1ccc(O)c(O)c1 [Example 66, 2-(3,4-dihydroxyhydrocinnamoyl)-1,3-cyclopentanedione], the “inhibition to tyrosine hydroxylase” value (tyrosine hydroxylase; at 100 mcg/cc) was 85%.
